Literature values in patent US10864174B2, “Method maintaining iron homeostasis with shogaols” (priority 2016, dated 2020).

How the values were obtained:
[1] = test system: HCT-116 human colon cancer cells; settings: one value given for both cell lines, read-out: IC50, growth inhibition
[2] = test system: H1299 human lung cancer cells; settings: one value given for both cell lines, read-out: IC50, growth inhibition
[3] = test system: nitric oxide (NO) synthesis; settings: compared with [6]-gingerol
arachidonic acid pathway = settings: compared with [6]-gingerol

IC50 [1] [µM]	IC50 [2] [µM]	Compound	inhibitory effects on nitric oxide (NO) synthesis [3]	inhibitory effects on the arachidonic acid pathway (arachidonic acid pathway)
~150	~150	CCCCC[C@H](O)CC(=O)CCc1ccc(O)c(OC)c1 [[6]-gingerol, reference compound]		
~8	~8	CCCCC/C=C/C(=O)CCc1ccc(O)c(OC)c1 [[6]-shogaol]	much stronger inhibitory effects	much stronger inhibitory effects
